PubChem BioAssay AID330 (DTP/NCI, 2004)
“And” between values parts separate entries of the source, which are not always exact repeats. Equal entries are not always repeated. Inconclusive results and toxic doses are left out. Numbered stars: 1 amine (or outer) side, 2 acyl side, 3 side chain; on linkers, the order of the positions; unused ones are H or OH. Peptide text beside a SMILES is read from it. γGlu = O=C(O)[CH](CCC(=O)[*:2])N[*:1]

System: P388 leukemia ip, CD2F1 mice, survival T/C
Assay: NCI In Vivo Anticancer Drug Screen. Data for tumor model P388 Leukemia (intraperitoneal) in CD2F1 (CDF1) mice
Conditions: endpoint: median survival time, higher = longer survival
Method in brief: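 Mice carrying the transplanted tumor received test compound or vehicle. Survival was recorded in each group, and the value is the treated-group measurement divided by that of the vehicle-treated control group.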

[1] = dose: 60.0 mg/kg/injection, schedule: Q01DX005 (ip), vehicle: saline with Tween-80
[2] = dose: 120.0 mg/kg/injection, schedule: Q01DX005 (ip), vehicle: saline with Tween-80
[3] = dose: 240.0 mg/kg/injection, schedule: Q01DX005 (ip), vehicle: saline with Tween-80
[4] = dose: 50.0 mg/kg/injection, schedule: Q01DX009 (ip), vehicle: saline
[5] = dose: 100.0 mg/kg/injection, schedule: Q01DX009 (ip), vehicle: saline
[6] = dose: 50.0 mg/kg/injection, schedule: Q01DX009 (ip), vehicle: saline with Tween-80
[7] = dose: 200.0 mg/kg/injection, schedule: Q01DX009 (ip), vehicle: saline with Tween-80
[8] = dose: 50.0 mg/kg/injection, schedule: Q01DX005 (ip), vehicle: saline with Tween-80
[9] = dose: 100.0 mg/kg/injection, schedule: Q01DX005 (ip), vehicle: saline with Tween-80
[10] = dose: 200.0 mg/kg/injection, schedule: Q01DX005 (ip), vehicle: saline with Tween-80
[11] = dose: 50.0 mg/kg/injection, schedule: Q01DX005 (ip), vehicle: saline
[12] = dose: 100.0 mg/kg/injection, schedule: Q01DX005 (ip), vehicle: saline
[13] = dose: 200.0 mg/kg/injection, schedule: Q01DX005 (ip), vehicle: saline
[14] = dose: 12.5 mg/kg/injection, schedule: Q01DX005 (ip), vehicle: saline
[15] = dose: 6.25 mg/kg/injection, schedule: Q01DX009 (ip), vehicle: saline
[16] = dose: 6.25 mg/kg/injection, schedule: Q01DX009 (ip), vehicle: Klucel (hydroxypropylcellulose) (HPC)
[17] = dose: 12.5 mg/kg/injection, schedule: Q01DX009 (ip), vehicle: Klucel (hydroxypropylcellulose) (HPC)
[18] = dose: 25.0 mg/kg/injection, schedule: Q01DX009 (ip), vehicle: Klucel (hydroxypropylcellulose) (HPC)

## O=C(Nc1ccc(Cl)cc1)Nc1nnc(/C=C/c2ccc(Cl)c(Cl)c2)o1
[1]
  T/C: 95 % of control
[2]
  T/C: 91 % of control
[3]
  T/C: 101 % of control

## CC(C)(C)C(=O)NC(Cc1cnc[nH]1)C(=O)O (centres undefined)
[4]
  T/C: 100 % of control
[5]
  T/C: 106 % of control
dose: 200.0 mg/kg/injection, schedule: Q01DX009 (ip), vehicle: saline
  T/C: 108 % of control

## COc1ccc2c(c1)C(=O)OC2
[6]
  T/C: 102 % of control
dose: 100.0 mg/kg/injection, schedule: Q01DX009 (ip), vehicle: saline with Tween-80
  T/C: 101 % of control
[7]
  T/C: 99 % of control

## Clc1cnc(Oc2ccccc2)c2ccccc12
[8]
  T/C: 104 % of control
[9]
  T/C: 103 % of control
[10]
  T/C: 88 % of control

## CCOC(=O)c1ccc(N=C(C2=C(O)c3ccccc3C2=O)c2ccccc2)cc1
dose: 25.0 mg/kg/injection, schedule: Q04DX002 (ip), vehicle: saline with Tween-80
  T/C: 92 % of control
dose: 50.0 mg/kg/injection, schedule: Q04DX002 (ip), vehicle: saline with Tween-80
  T/C: 101 % of control
dose: 100.0 mg/kg/injection, schedule: Q04DX002 (ip), vehicle: saline with Tween-80
  T/C: 95 % of control

## NC(CCC(=O)NC(CCC(=O)O)C(=O)NC(CCC(=O)O)C(=O)O)C(=O)O (stereo not drawn) (γGlu-Glu-Glu-OH; configuration not given here)
[11]
  T/C: 98 % of control
[12]
  T/C: 95 % of control
[13]
  T/C: 102 % of control

## COc1cc(NCC(C)(O)CN(CC(C)C)C(C)C)c2ncccc2c1 (centres undefined)
[14]
  T/C: 97 % of control
dose: 25.0 mg/kg/injection, schedule: Q01DX005 (ip), vehicle: saline
  T/C: 103 % of control
[11]
  T/C: 106 % of control and 109 % of control

## CSc1nccnn1
[15]
  T/C: 109 % of control
dose: 12.5 mg/kg/injection, schedule: Q01DX009 (ip), vehicle: saline
  T/C: 115 % of control
dose: 25.0 mg/kg/injection, schedule: Q01DX009 (ip), vehicle: saline
  T/C: 108 % of control and 116 % of control
[4]
  T/C: 118 % of control
[5]
  T/C: 120 % of control

## O=c1c2ccccc2n(-c2ccccc2)c2ccccc12
dose: 50.0 mg/kg/injection, schedule: Q01DX005 (ip), vehicle: Klucel (hydroxypropylcellulose) (HPC)
  T/C: 100 % of control
dose: 100.0 mg/kg/injection, schedule: Q01DX005 (ip), vehicle: Klucel (hydroxypropylcellulose) (HPC)
  T/C: 100 % of control
dose: 200.0 mg/kg/injection, schedule: Q01DX005 (ip), vehicle: Klucel (hydroxypropylcellulose) (HPC)
  T/C: 99 % of control

## O=C1C=CC(=O)N1C1CCCCC1
[16]
  T/C: 97 % of control
[17]
  T/C: 100 % of control
[18]
  T/C: 97 % of control

## CO/C=C1\OC(=O)C=C1OC
[8]
  T/C: 101 % of control
[9]
  T/C: 108 % of control
[10]
  T/C: 114 % of control

## COc1ccc2c3c1OC1CC(N4CCCC4)=C(c4c([N+](=O)[O-])cc([N+](=O)[O-])cc4[N+](=O)[O-])C4(O)C(C2)N(C)CCC314 (centres undefined)
dose: 60.0 mg/kg/injection, schedule: Q01DX005 (ip), vehicle: Klucel (hydroxypropylcellulose) (HPC)
  T/C: 94 % of control
dose: 120.0 mg/kg/injection, schedule: Q01DX005 (ip), vehicle: Klucel (hydroxypropylcellulose) (HPC)
  T/C: 94 % of control
dose: 240.0 mg/kg/injection, schedule: Q01DX005 (ip), vehicle: Klucel (hydroxypropylcellulose) (HPC)
  T/C: 90 % of control

## OCc1ccccc1Cn1ccnc1
[1]
  T/C: 96 % of control
[2]
  T/C: 93 % of control
[3]
  T/C: 96 % of control

## COC(=O)C[CH2][Sn]([CH2]CC(=O)OC)([c]1ccccc1)[c]1ccccc1
[11]
  T/C: 100 % of control
[12]
  T/C: 100 % of control
[13]
  T/C: 97 % of control

## [CH3][Sn]([CH3])([Cl])[S]CCN
dose: 0.78 mg/kg/injection, schedule: Q01DX009 (ip), vehicle: saline
  T/C: 99 % of control
dose: 1.56 mg/kg/injection, schedule: Q01DX009 (ip), vehicle: saline
  T/C: 105 % of control
dose: 3.12 mg/kg/injection, schedule: Q01DX009 (ip), vehicle: saline
  T/C: 123 % of control
[15]
  T/C: 120 % of control

## Cc1c(N)nc([C@H](CC(N)=O)NC[C@H](N)C(N)=O)nc1C(=O)N[C@H](C(=O)N[C@H](C)[C@@H](O)[C@H](C)C(=O)N[C@H](C(=O)NCCc1nc(-c2nc(C(=O)NCCC[S+](C)C)cs2)cs1)[C@@H](C)O)C(OC1OC(CO)C(O)C(O)C1OC1OC(CO)C(O)C(OC(N)=O)C1O)c1cnc[nH]1 (some centres undefined)
dose: 3.13 mg/kg/injection, schedule: Q01DX009 (ip), vehicle: Klucel (hydroxypropylcellulose) (HPC)
  T/C: 121 % of control
dose: 3.5 mg/kg/injection, schedule: Q01DX009 (ip), vehicle: saline
  T/C: 100 % of control
dose: 3.6 mg/kg/injection, schedule: Q01DX009 (ip), vehicle: saline
  T/C: 117 % of control
dose: 4.0 mg/kg/injection, schedule: Q04DX003 (ip), vehicle: saline
  T/C: 115 % of control
dose: 5.3 mg/kg/injection, schedule: Q01DX009 (ip), vehicle: saline
  T/C: 107 % of control and 114 % of control
[16]
  T/C: 123 % of control
dose: 8.0 mg/kg/injection, schedule: Q04DX003 (ip), vehicle: saline
  T/C: 122 % of control
dose: 12.0 mg/kg/injection, schedule: Q01DX009 (ip), vehicle: saline
  T/C: 106 % of control and 121 % of control
[17]
  T/C: 121 % of control
dose: 16.0 mg/kg/injection, schedule: Q04DX003 (ip), vehicle: saline
  T/C: 121 % of control
[18]
  T/C: 94 % of control

## CN(C)CC(CN(C)C)C(=O)/C=C/c1ccc(OCc2ccccc2)cc1
dose: 6.25 mg/kg/injection, schedule: Q01DX005 (ip), vehicle: saline
  T/C: 104 % of control
[14]
  T/C: 97 % of control

## CC(=O)c1ccc2ccccc2c1OC(=O)c1cccnc1
dose: 6.25 mg/kg/injection, schedule: Q01DX009 (ip), vehicle: distilled water + Tween-80
  T/C: 100 % of control
dose: 12.5 mg/kg/injection, schedule: Q01DX009 (ip), vehicle: distilled water + Tween-80
  T/C: 104 % of control
dose: 25.0 mg/kg/injection, schedule: Q01DX009 (ip), vehicle: distilled water + Tween-80
  T/C: 111 % of control and 94 % of control
dose: 50.0 mg/kg/injection, schedule: Q01DX009 (ip), vehicle: distilled water + Tween-80
  T/C: 107 % of control and 111 % of control
dose: 100.0 mg/kg/injection, schedule: Q01DX009 (ip), vehicle: distilled water + Tween-80
  T/C: 117 % of control and 119 % of control
dose: 200.0 mg/kg/injection, schedule: Q01DX009 (ip), vehicle: distilled water + Tween-80
  T/C: 121 % of control

## OCCCN1CCCCC1CO (centres undefined)
[6]
  T/C: 116 % of control
[7]
  T/C: 150 % of control

## Cc1cn(C2CC(O)C(CS)O2)c(=O)[nH]c1=O (centres undefined)
[8]
  T/C: 104 % of control
[9]
  T/C: 105 % of control
[10]
  T/C: 103 % of control

## Cc1[nH]c2ccccc2c1SCc1ccccc1
dose: 25.0 mg/kg/injection, schedule: Q01DX009 (ip), vehicle: saline + alcohol
  T/C: 94 % of control
dose: 50.0 mg/kg/injection, schedule: Q01DX009 (ip), vehicle: saline + alcohol
  T/C: 100 % of control
dose: 100.0 mg/kg/injection, schedule: Q01DX009 (ip), vehicle: saline + alcohol
  T/C: 99 % of control

## Cc1ccc(S(=O)(=O)OCOS(=O)(=O)c2ccc(C)cc2)cc1
[18]
  T/C: 101 % of control
dose: 50.0 mg/kg/injection, schedule: Q01DX009 (ip), vehicle: Klucel (hydroxypropylcellulose) (HPC)
  T/C: 120 % of control and 121 % of control
dose: 100.0 mg/kg/injection, schedule: Q01DX009 (ip), vehicle: Klucel (hydroxypropylcellulose) (HPC)
  T/C: 122 % of control
dose: 200.0 mg/kg/injection, schedule: Q01DX009 (ip), vehicle: Klucel (hydroxypropylcellulose) (HPC)
  T/C: 123 % of control
dose: 400.0 mg/kg/injection, schedule: Q01DX009 (ip), vehicle: Klucel (hydroxypropylcellulose) (HPC)
  T/C: 160 % of control

## COC(=O)C1=CCC23CC[C@H](C(C)(/C=C/C=C(\C)C(=O)O)OC2=O)[C@]3(O)CC1 (some centres undefined)
dose: 3.88 mg/kg/injection, schedule: Q01DX005 (ip), vehicle: sodium bicarbonate
  T/C: 87 % of control
dose: 7.75 mg/kg/injection, schedule: Q01DX005 (ip), vehicle: sodium bicarbonate
  T/C: 100 % of control
dose: 15.5 mg/kg/injection, schedule: Q01DX005 (ip), vehicle: sodium bicarbonate
  T/C: 103 % of control
dose: 31.0 mg/kg/injection, schedule: Q01DX005 (ip), vehicle: sodium bicarbonate
  T/C: 108 % of control
